PubChem BioAssay AID1033 (Sanford-Burnham Center for Chemical Genomics, 2008)
Calls of active or inactive are those of the source. How the calls were made is not given here.

The compounds below were run against Chaperone protein DnaK (Escherichia coli (strain K12)) (UniProt P0A6Y8) (assay: binders of DnaK substrate-binding domain, biophysical, NMR, chaperone (AID 1033)). Conditions: Purified DnaK SBD, NMR ligand binding.
Chain of Chaperone protein DnaK (Escherichia coli (strain K12)) (P0A6Y8 whole entry, looked up, the tested form may be a part): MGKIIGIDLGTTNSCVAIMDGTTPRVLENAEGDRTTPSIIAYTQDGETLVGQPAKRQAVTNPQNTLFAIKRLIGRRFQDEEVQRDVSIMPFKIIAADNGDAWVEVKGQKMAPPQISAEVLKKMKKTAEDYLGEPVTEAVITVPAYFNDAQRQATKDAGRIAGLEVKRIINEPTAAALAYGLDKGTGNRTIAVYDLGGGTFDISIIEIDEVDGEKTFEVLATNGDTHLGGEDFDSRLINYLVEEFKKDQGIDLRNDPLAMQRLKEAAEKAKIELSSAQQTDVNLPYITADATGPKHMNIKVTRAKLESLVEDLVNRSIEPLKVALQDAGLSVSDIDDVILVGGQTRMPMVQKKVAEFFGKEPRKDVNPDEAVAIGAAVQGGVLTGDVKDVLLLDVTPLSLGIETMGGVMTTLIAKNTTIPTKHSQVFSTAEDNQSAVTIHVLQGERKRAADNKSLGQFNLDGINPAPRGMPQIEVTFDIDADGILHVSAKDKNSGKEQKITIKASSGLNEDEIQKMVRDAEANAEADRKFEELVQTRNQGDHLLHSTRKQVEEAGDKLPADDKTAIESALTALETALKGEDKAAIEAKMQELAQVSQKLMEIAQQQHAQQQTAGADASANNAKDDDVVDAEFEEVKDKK
`O=c1c2ccccc2nc2n1CCC2O` (stereo not given) was tested, and the Kd was > 4 mM (inactive).
With `COc1ccc([C@H]2COc3c(ccc(O)c3OC)C2)c(OC)c1O` the Kd was > 4 mM (inactive).
In the case of `CC1(C)Cc2cccc(C(=O)O)c2O1`, the Kd is reported as > 4 mM (inactive).
`Cc1nnsc1-c1onc(C)c1C(=O)O` was tested, and the Kd was > 4 mM (inactive).
In the case of `COc1cc(C)c(S(=O)(=O)N2CCN(C)CC2)cc1C`, the Kd is reported as > 4 mM (inactive).
With `O=c1[nH]c(O)c(C=NCc2cccs2)c(=O)[nH]1` the Kd was > 4 mM (inactive).
`Nc1cc(=O)[nH]c(SCC(=O)NC2CCCCC2)n1` was tested, and the Kd was > 4 mM (inactive).
For `Nc1c(Nc2ccccc2)c2ccccc2oc1=O`, the Kd was > 4 mM (inactive).
`Cn1cnc2c(Cl)ncnc21` was tested, and the Kd was > 4 mM (inactive).
In the case of `COc1cccc(-c2csc(NC(C)=O)n2)c1`, the Kd is reported as > 4 mM (inactive).
For `CN1C(=O)C(Cc2c[nH]c3ccccc23)C(=O)N(C)C1=O`, the Kd was > 4 mM (inactive).
With `CC(=O)O[C@H]1C[C@@H](OC(C)=O)C(C)(C)C2C[C@@H](OC(C)=O)[C@]3(C)C(CC[C@@]4(C)[C@H](c5ccoc5)C(=O)[C@H]5O[C@]543)[C@]21C` (stereo not given in full) the Kd was > 4 mM (inactive).
`CCOC(=O)CC1Sc2ccccc2NC1=S` (stereo not given) was tested, and the Kd was > 4 mM (inactive).
With `O=C(O)C1(O)C[C@@H](O)C(O)[C@H](O)C1` (stereo not given in full) the Kd was > 4 mM (inactive).
`COc1ccc(-c2coc3cc(O)ccc3c2=O)c(OC)c1` was tested, and the Kd was > 4 mM (inactive).
For `CCOc1nc(C)ccc1-c1noc(-c2ccncc2)n1`, the Kd was > 4 mM (inactive).
With `OCc1nccn1Cc1ccccc1` the Kd was > 4 mM (inactive).
`NCc1nc2ccccc2s1` was tested, and the Kd was > 4 mM (inactive).
In the case of `COc1cccc(NC(=O)c2ncn[nH]2)c1`, the Kd is reported as > 4 mM (inactive).
For `c1ccc(C2NCCc3[nH]cnc32)cc1` (stereo not given), the Kd was > 4 mM (inactive).
In the case of `c1ccc(-c2nsc(N3CCNCC3)n2)cc1`, the Kd is reported as > 4 mM (inactive).
With `CN1CCC(NC(=O)c2c(F)cccc2Cl)CC1` the Kd was > 4 mM (inactive).
For `O=S(=O)(c1cccc(Cl)c1)N1CCCC1`, the Kd was > 4 mM (inactive).
With `CN1CN(Cc2ccccc2)CN/C1=N/[N+](=O)[O-]` the Kd was > 4 mM (inactive).
For `NC(=O)c1ccc(N2CCCCC2)c(N)c1`, the Kd was > 4 mM (inactive).
For `NC(=S)N1CCC(c2ccccc2)=N1`, the Kd was > 4 mM (inactive).
For `O=C(Cn1cncn1)c1ccc(F)c(F)c1`, the Kd was > 4 mM (inactive).
For `CCn1c(C)c(C(C)=O)c(N2CCN(C)CC2)nc1=S`, the Kd was > 4 mM (inactive).
For `O=C(O)c1cc(=O)c2cccc(O)c2[nH]1`, the Kd was > 4 mM (inactive).
In the case of `NC(=O)CNC(=O)c1ccc2ccccc2n1`, the Kd is reported as > 4 mM (inactive).
For `NCCC(=O)N[C@@H](Cc1cnc[nH]1)C(=O)O`, the Kd was > 4 mM (inactive).
For `OCc1ccc2c(c1)OCCCO2`, the Kd was > 4 mM (inactive).
In the case of `Cc1nc(SCC#N)c2c(C)c(C)sc2n1`, the Kd is reported as > 4 mM (inactive).
With `O=C(NS(=O)(=O)c1ccccc1)c1ccccc1F` the Kd was > 4 mM (inactive).
For `Cn1c(=O)c2c(n(C)c1=O)=NC1(CCCCC1)N=2`, the Kd was > 4 mM (inactive).
In the case of `OCCCc1nc2ccccc2[nH]1`, the Kd is reported as > 4 mM (inactive).
`CC12CCCC(O)(C1)C1CC(C)(C)C1CC2` (stereo not given) was tested, and the Kd was > 4 mM (inactive).
With `CN1CN/C(=N\[N+](=O)[O-])N(c2ccccc2)C1` the Kd was > 4 mM (inactive).
In the case of `CN1CCN(C(=S)c2ccc(N(C)C)cc2)CC1`, the Kd is reported as > 4 mM (inactive).
In the case of `CC(=O)Oc1c2c(c(CC=C(C)C)c3c1C(=O)C1=C[C@@H]4CC5C(C)(C)OC(C/C=C(\C)C(=O)O)(C4=O)[C@@]15O3)OC(C)(CCC=C(C)C)C=C2` (stereo not given in full), the Kd is reported as > 4 mM (inactive).
With `c1cc2c(cc1[C@H]1OC[C@H]3[C@@H]1CO[C@H]3c1ccc3c(c1)OCO3)OCO2` the Kd was > 4 mM (inactive).
In the case of `NCc1ccccc1N1CCCCC1`, the Kd is reported as > 4 mM (inactive).
With `CC(C)(C)C(=O)Nc1ncc(C(F)(F)F)cc1Cl` the Kd was > 4 mM (inactive).
`c1ccc(SCc2nc(-c3ccccn3)no2)cc1` was tested, and the Kd was > 4 mM (inactive).
With `Cc1c(-c2ccccc2)[n+](=O)c(-c2ccco2)c(C)n1[O-]` the Kd was > 4 mM (inactive).
For `O=C(Nc1ccon1)c1ccccc1Cl`, the Kd was > 4 mM (inactive).
With `CSc1nnc(-c2ccccc2NC(C)=O)o1` the Kd was > 4 mM (inactive).
For `N#Cc1ccccc1CSc1ccccn1`, the Kd was > 4 mM (inactive).
For `COc1cc(C(=S)N2CCC(C(N)=O)CC2)ccc1O`, the Kd was > 4 mM (inactive).
`CC1CCC(N2CCN(c3ncccn3)CC2)CC1` (stereo not given) was tested, and the Kd was > 4 mM (inactive).
With `CC(C)c1c(O)ccc2c1CCC1C(C)(C)CCC[C@]21C` (stereo not given in full) the Kd was > 4 mM (inactive).
`COc1c2c(cc3occ(-c4ccc5c(c4)OCO5)c(=O)c13)OC(C)(C)C=C2` was tested, and the Kd was > 4 mM (inactive).
For `COC(=O)c1ccc(NC(=O)CC2NCCNC2=O)cc1` (stereo not given), the Kd was > 4 mM (inactive).
In the case of `NC1=NC(=O)CC(C(=O)Nc2ccccc2)S1` (stereo not given), the Kd is reported as > 4 mM (inactive).
In the case of `COc1ccc2nc(N)sc2n1`, the Kd is reported as > 4 mM (inactive).
In the case of `Cn1ncc(C(=O)O)c1-c1ccccc1`, the Kd is reported as > 4 mM (inactive).
For `Cc1cc(N2CCN(C)CC2)ncn1`, the Kd was > 4 mM (inactive).
In the case of `O=S1(=O)CCC(NCCO)C1` (stereo not given), the Kd is reported as > 4 mM (inactive).
`O=C(O)Cn1cc(C(=O)C2CC2)c2ccccc21` was tested, and the Kd was > 4 mM (inactive).
In the case of `CC(C)c1nnc(N)s1`, the Kd is reported as > 4 mM (inactive).
